Results reported in US11827628B2, “Compositions and methods for inhibition of the JAK pathway” (Rigel Pharmaceuticals, Inc., priority 2005, dated 2023).
Read-outs that look alike come from different tables or passages of the source.

Tested on: Primary human T-cells
Assay: Primary Human T-Cell Proliferation Assay Stimulated with IL-2 (CellTiter-Glo)
Format: cell-based
Conditions: read-out: IC50, Example 42
In short: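 IC50 derived from CellTiter-Glo ATP signal after 72 hours of IL-2-driven proliferation at 37° C. Cells: primary human T-cells from blood, stimulated beforehand 3-4 days on anti-CD3/anti-CD28 with IL-2, then rested from IL-2 before compound exposure in duplicate; IL-2-free wells served as unstimulated control.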

[1] = Homo sapiens, T-cell, primary human T-cell proliferation stimulated with IL-2
[2] = primary human T-cells stimulated with IL-2, proliferation

SMILES	IC50 [1] [µM]	also measured
C=CCNC(=O)COc1ccc(Nc2nc(Nc3ccc(C)c(S(N)(=O)=O)c3)ncc2F)cc1 [Compound I-159, N4-(4-Allylaminocarbonylmethoxyphenyl)-N2-(3-aminosulfonyl-4-methylphenyl)-5-fluoro-2,4-pyrimidinediamine]	0.539	–
Cc1cnc(Nc2cccc(S(N)(=O)=O)c2)nc1Nc1ccc(OCC(N)=O)cc1 [Compound I-109, N4-(4-Aminocarbonylmethoxyphenyl)-N2-(3-aminosulfonylphenyl)-5-methyl-2,4-pyrimidinediamine]	0.203	–
Cc1cnc(Nc2ccc(S(N)(=O)=O)cc2)nc1Nc1ccc(OCC(N)=O)cc1 [Compound I-108, N4-(4-Aminocarbonylmethoxyphenyl)-N2-(4-aminosulfonylphenyl)-5-methyl-2,4-pyrimidinediamine]	0.148	–
Cc1ccc(Nc2ncc(F)c(Nc3ccc(OCC#N)c(CO)c3)n2)cc1S(N)(=O)=O [Compound I-51, N2-(3-Aminosulfonyl-4-methylphenyl)-N4-(4-cyanomethoxy-3-hydroxymethylphenyl)-5-fluoro-2,4-pyrimidinediamine]	2.12	–
CNC(=O)COc1ccc(Nc2nc(Nc3cccc(S(N)(=O)=O)c3)ncc2C)cc1Cl [Compound I-150, N2-(3-Aminosulfonylphenyl)-N4-(3-chloro-4-methylaminocarbonylmethoxyphenyl)-5-methyl-2,4-pyrimidinediamine]	0.0681	–
N#CCCc1ccc(Nc2nc(Nc3cccc(S(N)(=O)=O)c3)ncc2F)cc1F [III-18, N2-(3-Aminosulfonylphenyl)-N4-[4-(2-cyanoethyl)-3-fluorophenyl]-5-fluoro-2,4-pyrimidinediamine]	0.136	–
NS(=O)(=O)c1cccc(Nc2ncc(F)c(Nc3ccc(CN4CCOCC4)cc3)n2)c1 [III-103, N2-(3-Aminosulfonylphenyl)-5-fluoro-N4-(4-N-morpholinomethylenephenyl)-2,4-pyrimidinediamine]	–	IC50 [2]: 1.06 µM
COc1cc(Nc2nc(Nc3ccc(S(N)(=O)=O)cc3)ncc2F)cc(OCC#N)c1OC [Compound I-1, N2-(4-Aminosulphonylphenyl)-N4-(3-cyanomethoxy-4,5-dimethoxyphenyl)-5-fluoro-2,4-pyrimidinediamine]	9.89	–
Cc1ccc(Nc2ncc(F)c(Nc3ccc(OCc4cccnc4)cc3)n2)cc1S(N)(=O)=O [Compound I-178, N2-(3-Aminosulfonyl-4-methylphenyl)-5-fluoro-N4-[4-(3-pyridylmethoxy)phenyl]-2,4-pyrimidinediamine]	0.0293	–
Cc1ccc(Nc2ncc(F)c(Nc3ccc(Cc4ccncc4)cc3)n2)cc1S(N)(=O)=O [III-74, N2-(3-Aminosulfonyl-4-methylphenyl)-5-fluoro-N4-[4-(4-pyridinylmethyl)phenyl]-2,4-pyrimidinediamine]	0.175	–
Cc1ccc(Nc2ncc(F)c(Nc3ccc(OCC(N)=O)c(F)c3)n2)cc1S(N)(=O)=O [Compound I-102, N4-(4-Aminocarbonylmethoxy-3-fluorophenyl)-N2-(3-aminosulfonyl-4-methylphenyl)-5-fluoro-2,4-pyrimidinediamine]	0.211	–
N#CCCc1ccc(Nc2nc(Nc3cccc(S(N)(=O)=O)c3)ncc2F)cc1Cl [III-22, N2-(3-Aminosulfonylphenyl)-N4-[3-chloro-4-(2-cyanoethyl)phenyl]-5-fluoro-2,4-pyrimidinediamine]	0.0761	–
CNC(=O)COc1ccc(Nc2nc(Nc3ccc(C)c(S(N)(=O)=O)c3)ncc2C)cc1F [Compound I-156, N2-(3-Aminosulfonyl-4-methylphenyl)-N4-(3-fluoro-4-methylaminocarbonylmethoxyphenyl)-5-methyl-2,4-pyrimidinediamine]	0.142	–
Cc1cnc(Nc2cccc(S(N)(=O)=O)c2)nc1Nc1ccc(OCC(=O)N(C)C)c(Cl)c1 [Compound I-135, N2-(3-Aminosulfonylphenyl)-N4-(3-chloro-4-dimethylaminocarbonylmethoxyphenyl)-5-methyl-2,4-pyrimidinediamine]	0.104	–
Cc1ccc(Nc2ncc(F)c(Nc3cnc4c(c3)OC(C)(C)C(=O)N4CC#N)n2)cc1S(N)(=O)=O [Compound V-14, N2-(3-Aminosulfonyl-4-methylphenyl)-N4-[2,2-dimethyl-3-oxo-4-cyanomethyl-5-pyrid[1,4]oxazin-7-yl]-5-fluoro-2,4-pyrimidinediamine]	–	IC50 [2]: 2.59 µM
Cc1ccc(Nc2ncc(F)c(NCCc3ccc(-n4ccnc4)cc3)n2)cc1S(N)(=O)=O [III-88, N2-(3-Aminosulfonyl-4-methylphenyl)-5-fluoro-N4-[4-(1-imidazolyl)phenethyl]-2,4-pyrimidinediamine]	0.166	–
Cc1ccc(Nc2ncc(F)c(Nc3ccc(CN4CCOCC4)cc3)n2)cc1S(N)(=O)=O [III-104, N2-(3-Aminosulfonyl-4-methylphenyl)-5-fluoro-N4-(4-N-morpholinomethylenephenyl)-2,4-pyrimidinediamine]	–	IC50 [2]: 1.19 µM

SMILES	IC50 [1] [µM]	also measured
Cc1cnc(Nc2ccc(Cl)c(S(N)(=O)=O)c2)nc1Nc1ccc(OCC(=O)N(C)C)c(Cl)c1 [Compound I-141, N2-(3-Aminosulfonyl-4-chlorophenyl)-N4-(3-chloro-4-dimethylaminocarbonylmethoxyphenyl)-5-methyl-2,4-pyrimidinediamine]	0.669	–
Cc1noc(CCc2ccc(Nc3nc(Nc4cccc(S(N)(=O)=O)c4)ncc3F)cc2)n1 [III-106, N2-(3-Aminosulfonylphenyl)-5-fluoro-N4-[4-(3-methyl-1,2,4-oxadiazol-5-yl)ethylenephenyl]-2,4-pyrimidinediamine]	–	IC50 [2]: 0.0751 µM
Cc1ccc(Nc2nc(Nc3cccc(S(N)(=O)=O)c3)ncc2F)cc1OCCN1CCOCC1 [Compound I-203, N2-(3-Aminosulfonylphenyl)-5-fluoro-N4-[4-methyl-3-(2-morpholinoethyloxy)phenyl]-2,4-pyrimidinediamine]	0.684	–
Cc1nnc(COc2ccc(Nc3nc(Nc4ccc(C)c(S(N)(=O)=O)c4)ncc3F)cc2)o1 [Compound I-279, N2-(3-Aminosulfonyl-4-methylphenyl)-5-fluoro-N4-[4-(5-methyl-1,3,4-oxadiazol-2-yl)methoxyphenyl]-2,4-pyrimidinediamine]	0.167	–
COc1ccc(Nc2nc(Nc3cccc(S(=O)(=O)NN4CCC(C)CC4)c3)ncc2F)cc1Cl [VI-9, N4-(3-Chloro-4-methoxyphenyl)-5-fluoro-N2-[3-(4-methylpipendin-1-yl)aminosulfonylphenyl]-2,4-pyrimidinediamine]	–	IC50 [2]: 0.945 µM
Cc1ccc(Nc2ncc(F)c(Nc3ccc(Oc4cccnc4)cc3)n2)cc1S(N)(=O)=O [II-12, N2-(3-Aminosulfonyl-4-methylphenyl)-5-fluoro-N4-[4-(3-pyridyloxy)phenyl]-2,4-pyrimidinediamine]	0.409	–
Cc1cc(COc2ccc(Nc3nc(Nc4cccc(S(N)(=O)=O)c4)ncc3F)cc2)no1 [Compound I-230, N2-(3-Aminosulfonylphenyl)-5-fluoro-N4-[4-(5-methylisoxazol-3-yl)methyleneoxyphenyl]-2,4-pyrimidinediamine]	0.0693	–
NS(=O)(=O)c1cccc(Nc2ncc(F)c(Nc3ccc(CN4CCS(=O)(=O)CC4)cc3)n2)c1 [III-110, N2-(3-Aminosulfonylphenyl)-5-fluoro-N4-{4-[(1,1-dioxothiomorpholin-4-yl-)methyl]phenyl}-2,4-pyrimidinediamine]	–	IC50 [2]: 0.998 µM
Cc1ccc(Nc2ncc(F)c(Nc3ccc(CN4CCS(=O)(=O)CC4)cc3)n2)cc1S(N)(=O)=O [III-111, N2-(3-Aminosulfonyl-4-methylphenyl)-5-fluoro-N4-{4-[(1,1-dioxothiomorpholin-4-yl-)methyl]phenyl}-2,4-pyrimidinediamine]	–	IC50 [2]: 0.926 µM
Cc1cc(Nc2nc(Nc3ccc(S(N)(=O)=O)cc3)ncc2F)cc(C)c1N1CCN(C)CC1 [IX-44, N2-(4-Aminosulfonylphenyl)-N4-[3,5-dimethyl-4-(4-methylpiperazin-1-yl]phenyl)-5-fluoro-2,4-pyrimidinediamine]	–	IC50 (Homo sapiens, T-cell, primary human T-cells stimulated with IL-2, proliferation): 0.789 µM
CNC(=O)COc1ccc(Nc2nc(Nc3ccc(S(N)(=O)=O)cc3)ncc2C)cc1Cl [Compound I-149, N2-(4-Aminosulfonylphenyl)-N4-(3-chloro-4-methylaminocarbonylmethoxyphenyl)-5-methyl-2,4-pyrimidinediamine]	0.197	–
NS(=O)(=O)c1ccc(Nc2ncc(F)c(Nc3ccc(OCCN4CCOCC4)cc3)n2)cc1 [Compound I-205, N2-(4-Aminosulfonylphenyl)-5-fluoro-N4-[4-(2-morpholinoethyloxy)phenyl)-2,4-pyrimidinediamine]	1.86	–
Cc1ccc(Nc2ncc(F)c(Nc3ccc(CCC#N)c(Cl)c3)n2)cc1S(N)(=O)=O [III-21, N2-(3-Aminosulfonyl-4-methylphenyl)-N4-[3-chloro-4-(2-cyanoethyl)phenyl]-5-fluoro-2,4-pyrimidinediamine]	0.114	–
COc1ccc(Nc2ncc(F)c(Nc3ccc(Cc4ccncc4)cc3)n2)cc1S(N)(=O)=O [III-66, N2-(3-Aminosulfonyl-4-methoxyphenyl)-5-fluoro-N4-[4-(4-pyridinylmethyl)phenyl]-2,4-pyrimidinediamine]	1.15	–
Cc1ccc(Nc2ncc(F)c(Nc3cccc(OC4CCN(C)CC4)c3)n2)cc1S(N)(=O)=O [II-2, N2-(3-Aminosulfonyl-4-methylphenyl)-5-fluoro-N4-{3-[(1-methylpiperidin-4-yl)oxy]phenyl}-2,4-pyrimidinediamine]	1.52	–
Cc1cnc(Nc2cccc(S(N)(=O)=O)c2)nc1Nc1ccc(OCC#N)cc1 [Compound I-58, N2-(3-Aminosulfonylphenyl)-N4-(4-cyanomethoxyphenyl)-5-methyl-2,4-pyrimidinediamine]	0.0192	–
NC(=O)OCCc1ccc(Nc2nc(Nc3cccc(S(N)(=O)=O)c3)ncc2F)cc1 [III-54, N4-{4-[2-(Aminocarbonyloxy)ethyl]phenyl}-N2-(3-aminosulfonylphenyl)-5-fluoro-2,4-pyrimidinediamine]	0.14	–
